In US12110288B2, “MASP-2 inhibitors and methods of use” (Omeros Corporation, priority 2019, dated 2024):
Structures can show the parent of a compound that is named as a salt.

target: T1, MASP-2 (CCP1-CCP2-SP) (Homo sapiens, UniProt O00187); assay: Enzymatic Assay for MASP-2; type: biochemical; conditions: fluorogenic substrate based on C2 cleavage site, room temperature, 20 mM HEPES pH 7.4
T1 construct: 15 μL of Enzyme MASP-2 (CCP1-CCP2-SP) in Assay Buffer
Outline: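 Fluorogenic substrate modelled on the C2 cleavage site, run at room temperature in 20 mM HEPES pH 7.4, 140 mM NaCl, 0.1% Tween 20; compounds were added from DMSO serial dilutions before enzyme and substrate. Reactions ran 20 min and were stopped with 0.1 M acetic acid before fluorescence was read. % activity was normalised to DMSO-only and no-enzyme controls; IC50 was taken as Ki, with tight- or slow-binding inhibitors handled separately.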

T1 sequence (O00187 445-686 limits assumed): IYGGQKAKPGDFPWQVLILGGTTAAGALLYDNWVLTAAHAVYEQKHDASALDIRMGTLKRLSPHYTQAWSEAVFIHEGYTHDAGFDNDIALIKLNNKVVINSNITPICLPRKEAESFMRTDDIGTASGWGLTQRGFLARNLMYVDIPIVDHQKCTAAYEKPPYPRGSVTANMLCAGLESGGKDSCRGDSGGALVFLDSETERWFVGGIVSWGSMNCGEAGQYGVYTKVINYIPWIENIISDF
T1 sequence (O00187 298-444 partner limits assumed): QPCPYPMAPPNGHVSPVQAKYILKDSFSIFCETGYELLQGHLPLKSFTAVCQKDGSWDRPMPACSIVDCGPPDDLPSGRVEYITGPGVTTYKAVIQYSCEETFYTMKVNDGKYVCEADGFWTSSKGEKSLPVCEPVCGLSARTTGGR

Ki	Structure (SMILES)
< 500 nM	O=C(Cn1c(-c2ccc(F)cc2)cnc(NCCc2ccccc2)c1=O)NCc1cc2cnccc2[nH]1 [Compound 106, N-((1H-Pyrrolo[3,2-c]pyridin-2-yl)methyl)-2-(6-(4-fluorophenyl)-2-oxo-3-(phenethylamino)pyrazin-1(2H)-yl)acetamide]
< 500 nM	O=C(Cn1c(-c2cc(F)ccc2F)cnc(NCCc2ccccc2)c1=O)NCc1cc2cnccc2[nH]1 [Compound 107, N-((1H-Pyrrolo[3,2-c]pyridin-2-yl)methyl)-2-(6-(2,5-difluorophenyl)-2-oxo-3-(phenethylamino)pyrazin-1(2H)-yl)acetamide]
< 500 nM	Cc1ccc(C)c(-c2cnc(NCCc3ccccc3)c(=O)n2CC(=O)NCc2cc3cnccc3[nH]2)c1 [Compound 108, N-((1H-Pyrrolo[3,2-c]pyridin-2-yl)methyl)-2-(6-(2,5-dimethylphenyl)-2-oxo-3-(phenethylamino)pyrazin-1(2H)-yl)acetamide]
< 500 nM	O=C(Cn1c(Br)cnc(NCCc2ccccc2)c1=O)NCc1cc2cnccc2[nH]1 [Compound 109, N-((1H-Pyrrolo[3,2-c]Pyridin-2-yl)Methyl)-2-(6-Bromo-2-Oxo-3-(Phenethylamino)Pyrazin-1(2H)-yl)Acetamide]
< 500 nM	O=C(Cn1c(-c2cnn(C3CCC3)c2)cnc(NCCc2ccccc2)c1=O)NCc1cc2cnccc2[nH]1 [Compound 110, N-((1H-Pyrrolo[3,2-c]pyridin-2-yl)methyl)-2-(6-(1-cyclobutyl-1H-pyrazol-4-yl)-2-oxo-3-(phenethylamino)pyrazin-1(2H)-yl)acetamide]
< 500 nM	CC(C)(C)OC(=O)N1CC(n2cc(-c3cnc(NCCc4ccccc4)c(=O)n3CC(=O)NCc3cc4cnccc4[nH]3)cn2)C1 [Compound 111, tert-Butyl 3-(4-(1-(2(((1H-pyrrolo[3,2-c]pyridin-2-yl)methyl)amino)-2-oxoethyl)-6-oxo-5-(phenethylamino)-1,6-dihydropyrazin-2-yl)-1H-pyrazol-1-yl)azetidine-l-carboxylate]
< 500 nM	O=C(Cn1c(-c2cnn(C3CNC3)c2)cnc(NCCc2ccccc2)c1=O)NCc1cc2cnccc2[nH]1 [Compound 112, N-((1H-Pyrrolo[3,2-c]Pyridin-2-yl)Methyl)-2-(6-(1-(Azetidin-3-yl)-1H-Pyrazol-4-yl)-2-Oxo-3-(Phenethylamino)Pyrazin-1(2H)-yl)Acetamide Hydrochloride]
< 500 nM	O=C(Cn1c(-c2cnn(C(F)F)c2)cnc(NCCc2ccccc2)c1=O)NCc1cc2cnccc2[nH]1 [Compound 113, N-((1H-Pyrrolo[3,2-c]pyridin-2-yl)methyl)-2-(6-(1-(difluoromethyl)-1H-pyrazol-4-yl)-2-oxo-3-(phenethylamino)pyrazin-1(2H)-yl)acetamide]
< 500 nM	Cc1nn(C2CC2)cc1-c1cnc(NCCc2ccccc2)c(=O)n1CC(=O)NCc1cc2cnccc2[nH]1 [Compound 114, N-((1H-Pyrrolo[3,2-c]pyridin-2-yl)methyl)-2-(6-(1-cyclopropyl-3-methyl-1H-pyrazol-4-yl)-2-oxo-3-(phenethylamino)pyrazin-1(2H)-yl)acetamide]
< 500 nM	O=C(Cn1c(-c2cnn3c2CCC3)cnc(NCCc2ccccc2)c1=O)NCc1cc2cnccc2[nH]1 [Compound 115, N-((1H-Pyrrolo[3,2-c]pyridin-2-yl)methyl)-2-(6-(5,6-dihydro-4H-pyrrolo[1,2-b]pyrazol-3-yl)-2-oxo-3-(phenethylamino)pyrazin-1(2H)-yl)acetamide]
< 500 nM	O=C(Cn1c(-c2cnn3c2CCCC3)cnc(NCCc2ccccc2)c1=O)NCc1cc2cnccc2[nH]1 [Compound 116, N-((1H-Pyrrolo[3,2-c]pyridin-2-yl)methyl)-2-(2-oxo-3-(phenethylamino)-6-(4,5,6,7-tetrahydropyrazolo[1,5-α]pyridin-3-yl)pyrazin-1(2H)-yl)acetamide]
< 500 nM	CCOC(=O)CNc1ncc(-c2ccccc2)n(CC(=O)NCc2cc3cnccc3[nH]2)c1=O [Compound 117, Ethyl (4-(2-(((1H-pyrrolo[3,2-c]pyridin-2-yl)methyl)amino)-2-oxoethyl)-3-oxo-5-phenyl-3,4-dihydropyrazin-2-yl)glycinate]
500 to 2500 nM	O=C(O)CNc1ncc(-c2ccccc2)n(CC(=O)NCc2cc3cnccc3[nH]2)c1=O [Compound 118, (4-(2-(((1H-Pyrrolo[3,2-c]Pyridin-2-yl)Methyl)Amino)-2-Oxoethyl)-3-Oxo-5-Phenyl-3,4-Dihydropyrazin-2-yl)Glycine Trifluoroacetate]
< 500 nM	O=C(Cn1c(-c2ccccc2)cnc(N[C@@H](Cc2ccc(O)cc2)C(=O)O)c1=O)NCc1cc2cnccc2[nH]1 [Compound 119, trifluoroacetate]
< 500 nM	COCCNc1ncc(-c2ccccc2)n(CC(=O)NCc2cc3cnccc3[nH]2)c1=O [Compound 120, N-((1H-Pyrrolo[3,2-c]pyridin-2-yl)methyl)-2-(3-((2-methoxyethyl)amino)-2-oxo-6-phenylpyrazin-1(2H)-yl)acetamide trifluoroacetate]
< 500 nM	COCCCNc1ncc(-c2ccccc2)n(CC(=O)NCc2cc3cnccc3[nH]2)c1=O [Compound 121, N-((1H-Pyrrolo[3,2-c]pyridin-2-yl)methyl)-2-(3-((3-methoxypropyl)amino)-2-oxo-6-phenylpyrazin-1(2H)-yl)acetamide trifluoroacetate]

Ki	Structure (SMILES)
< 500 nM	COCCCCNc1ncc(-c2cnn(C)c2)n(CC(=O)NCc2cc3cnccc3[nH]2)c1=O [Compound 122, N-((1H-Pyrrolo[3,2-c]Pyridin-2-yl)Methyl)-2-(3-((4-Methoxybutyl)Amino)-6-(1-Methyl-1H-Pyrazol-4-yl)-2-Oxopyrazin-1(2H)-yl)Acetamide Trifluoroacetate]
< 500 nM	Cn1cc(-c2cnc(NCC(F)(F)c3ccccc3)c(=O)n2CC(=O)NCc2cc3cnccc3[nH]2)cn1 [Compound 123, N-((1H-Pyrrolo[3,2-c]Pyridin-2-yl)Methyl)-2-(3-((2,2-Difluoro-2-Phenylethyl)Amino)-6-(1-Methyl-1H-Pyrazol-4-yl)-2-Oxopyrazin-1(2H)-yl)Acetamide Trifluoroacetate]
< 500 nM	COCCCCNc1ncc(-c2ccccc2)n(CC(=O)NCc2cc3cnccc3[nH]2)c1=O [Compound 124, N-((1H-Pyrrolo[3,2-c]pyridin-2-yl)methyl)-2-(3-((4-methoxybutyl)amino)-2-oxo-6-phenylpyrazin-1(2H)-yl)acetamide trifluoroacetate]
< 500 nM	Cn1cc(-c2cnc(NCCC(F)F)c(=O)n2CC(=O)NCc2cc3cnccc3[nH]2)cn1 [Compound 125, N-((1H-Pyrrolo[3,2-c]pyridin-2-yl)methyl)-2-(3-((3,3-difluoropropyl)amino)-6-(1-methyl-1H-pyrazol-4-yl)-2-oxopyrazin-1(2H)-yl)acetamide trifluoroacetate]
< 500 nM	CCOCCCNc1ncc(-c2ccccc2)n(CC(=O)NCc2cc3cnccc3[nH]2)c1=O [Compound 126, N-((1H-Pyrrolo[3,2-c]Pyridin-2-yl)Methyl)-2-(3-((3-Ethoxypropyl)Amino)-2-Oxo-6-Phenylpyrazin-1(2H)-yl)Acetamide Trifluoroacetate]
< 500 nM	O=C(Cn1c(-c2ccccc2)cnc(NCCC(F)F)c1=O)NCc1cc2cnccc2[nH]1 [Compound 127, N-((1H-Pyrrolo[3,2-c]pyridin-2-yl)methyl)-2-(3-((3,3-difluoropropyl)amino)-2-oxo-6-phenylpyrazin-1(2H)-yl)acetamide trifluoroacetate]
< 500 nM	O=C(Cn1c(-c2ccccc2)cnc(NCC(F)(F)c2ccccc2)c1=O)NCc1cc2cnccc2[nH]1 [Compound 128, N-((1H-Pyrrolo[3,2-c]pyridin-2-yl)methyl)-2-(3-((2,2-difluoro-2-phenylethyl)amino)-2-oxo-6-phenylpyrazin-1(2H)-yl)acetamide trifluoroacetate]
< 500 nM	CCOCCCNc1ncc(-c2cnn(C)c2)n(CC(=O)NCc2cc3cnccc3[nH]2)c1=O [Compound 129, trifluoroacetate]
2500 to 10000 nM	Cn1cc(-c2cnc(NCCc3ccccc3)c(=O)n2CC(=O)NCc2cc(Cl)c3[nH]cnc3c2)cn1 [Compound 130, N-((7-Chloro-1H-Benzo[d]Imidazol-5-yl)Methyl)-2-(6-(1-Methyl-1H-Pyrazol-4-yl)-2-Oxo-3-(Phenethylamino)Pyrazin-1(2H)-yl)Acetamide]
> 10000 nM	Cn1cc(-c2cnc(NCCc3ccccc3)c(=O)n2CC(=O)NCc2cnc3[nH]ccc3c2)cn1 [Compound 131, N-((1H-Pyrrolo[2,3-b]Pyridin-5-yl)Methyl)-2-(6-(1-Methyl-1H-Pyrazol-4-yl)-2-Oxo-3-(Phenethylamino)Pyrazin-1(2H)-yl)Acetamide]
500 to 2500 nM	Cn1cc(-c2cnc(NCCc3ccccc3)c(=O)n2CC(=O)NCc2cc3cnccc3o2)cn1 [Compound 132]
< 500 nM	Cn1cc(-c2cnc(NCCc3ccccc3)c(=O)n2CC(=O)NCc2cc3cnccc3s2)cn1 [Compound 133, 2-(6-(1-Methyl-1H-Pyrazol-4-yl)-2-Oxo-3-(Phenethylamino)Pyrazin-1(2H)-yl)-N-(Thieno[3,2-c]Pyridin-2-Ylmethyl)Acetamide]
< 500 nM	CC(C)Nc1ncc(-c2ccccc2)n(CC(=O)NCc2cc3cnccc3[nH]2)c1=O [Compound 134, N-((1H-Pyrrolo[3,2-c]Pyridin-2-yl)Methyl)-2-(3-(Isopropylamino)-2-Oxo-6-Phenylpyrazin-1(2H)-yl)Acetamide]
< 500 nM	Cc1ccccc1CCNc1ncc(-c2ccccc2)n(CC(=O)NCc2cc3cnccc3[nH]2)c1=O [Compound 135, N-((1H-Pyrrolo[3,2-c]pyridin-2-yl)methyl)-2-(3-((2-methylphenethyl)amino)-2-oxo-6-phenylpyrazin-1(2H)-yl)acetamide]
< 500 nM	COc1cccc(CCNc2ncc(-c3ccccc3)n(CC(=O)NCc3cc4cnccc4[nH]3)c2=O)c1 [Compound 136, N-((1H-Pyrrolo[3,2-c]pyridin-2-yl)methyl)-2-(3-((3-methoxyphenethyl)amino)-2-oxo-6-phenylpyrazin-1(2H)-yl)acetamide]
